In brackets after ≈: the same amount, converted by molar mass. Read-outs that look alike come from different tables or passages of the source.
Tests used:
[1] = test system: MDR A. baumannii clinical isolates; assay: Resistance phenotype (MICs of antibiotics) of MDR clinical isolates; assay type: cell-based, Acinetobacter baumannii; conditions: Acinetobacter baumannii
[2] = test system: MDR K. pneumoniae clinical isolates; assay: as above; assay type: cell-based, Klebsiella pneumoniae; conditions: Klebsiella pneumoniae, read-out: MIC
[3] = test system: MDR E. cloacae clinical isolates; assay: as above; assay type: cell-based, Enterobacter cloacae; conditions: Enterobacter cloacae, read-out: MIC
[4] = test system: MDR P. aeruginosa clinical isolates; assay: as above; assay type: cell-based, Pseudomonas aeruginosa; conditions: Pseudomonas aeruginosa
[5] = test system: MDR E. coli clinical isolates; assay: as above; assay type: cell-based, Escherichia coli; conditions: Escherichia coli, read-out: MIC
[6] = test system: wild-type A. baumannii ATCC 17978; assay: Checkerboard assay; assay type: cell-based, Acinetobacter baumannii; conditions: ATCC 17978
Excerpt: (§1) Overnight-grown bacterial culture diluted in saline to 0.5 McFarland turbidity was successively diluted 1:50 in MHB to achieve a final concentration of 5 × 10^5 CFU/mL for inoculation. The antibiotic and adjuvant were serially diluted 2-fold along the x-axis and y-axis, respectively, resulting in varying concentrations of both agents in each well. […] Confirmation of turbidity was done using an EMax Plus microplate reader (Molecular Devices, United States) at a wavelength of 590 nm. Wells comprising MHB alone or in the presence of bacterial cells were used as negative or positive controls, respectively. Fractional inhibitory concentration index (FICI) is determined by adding the FICs of both antibiotic and adjuvant. The FIC of the antibiotic is calculated by dividing the MIC of the antibiotic in the presence of the adjuvant by the MIC of the antibiotic alone. Similarly, the FIC of the adjuvant is calculated by dividing the MIC of the adjuvant in the presence of the antibiotic by the MIC of the adjuvant alone.

[7] = test system: wild-type E. coli ATCC 25922; assay: microbe, parasite or virus in culture; assay type: cell-based, Escherichia coli; conditions: ATCC 25922; for MICcombo: antibiotic with dUSTBβP 3 at 8 μg/mL; for MIC: Escherichia coli, ATCC25922, 18 h, antibiotic alone (Supplementary Table 7), read-out: MICantibiotic
Protocol: The adjuvant activities of dUSTBβPs were evaluated using checkerboard assay as previously described ([Berry et al., 2019]). Overnight-grown bacterial culture diluted in saline to 0.5 McFarland turbidity was successively diluted 1:50 in MHB to achieve a final concentration of 5 × 10^5 CFU/mL for inoculation. The antibiotic and adjuvant were serially diluted 2-fold along the x-axis and y-axis, respectively, resulting in varying concentrations of both agents in each well. Subsequently, the 96-well plate was incubated with equal volumes of bacterial inoculum at 37°C for 18 h. Confirmation of turbidity was done using an EMax Plus microplate reader (Molecular Devices, United States) at a wavelength of 590 nm. Wells comprising MHB alone or in the presence of bacterial cells were used as negative or positive controls, respectively. Fractional inhibitory concentration index (FICI) is determined by adding the FICs of both antibiotic and adjuvant. The FIC of the antibiotic is calculated by dividing the MIC of the antibiotic in the presence of the adjuvant by the MIC of the antibiotic alone. Similarly, the FIC of the adjuvant is calculated by dividing the MIC of the adjuvant in the presence of the antibiotic by the MIC of the adjuvant alone. FICI ≤ 0.5, 0.5 < x ≤ 4, and >4 were deemed synergistic, additive, and antagonistic, respectively ([Meletiadis et al., 2010]).

[8] = test system: wild-type P. aeruginosa PAO1; assay: microbe, parasite or virus in culture; assay type: cell-based, Pseudomonas aeruginosa; conditions: PAO1
Excerpt: as §1

[9] = antibiotic with dUSTBβP 3 at 8 μg/mL

| Compound | MIC ([1]; 92247, read-out: MIC) [µg/mL] | MIC ([1]; AB027, read-out: MIC) [µg/mL] | MIC ([1]; AB031, read-out: MIC) [µg/mL] | MIC [2]; 113250 [µg/mL] | MIC [2]; 113254 [µg/mL] | MIC [2]; 116381 [µg/mL] | MIC [3]; 117029 [µg/mL] | MIC [3]; 118564 [µg/mL] | MIC [3]; 121187 [µg/mL] | MIC ([4]; 259-96196, read-out: MIC) [µg/mL] | MIC ([4]; 262-101856, read-out: MIC) [µg/mL] | MIC ([4]; 264-104354, read-out: MIC) [µg/mL] | MIC ([4]; 91433, read-out: MIC) [µg/mL] | MIC ([5]; 94393 (mcr-1 +)) [µg/mL] | MIC ([5]; 94474 (mcr-1 +)) [µg/mL] | MIC [5]; 107115 [µg/mL] | MIC ([1]; LAC-4, read-out: MIC) [µg/mL] | MIC ([4]; 114228, read-out: MIC) [µg/mL] | other results |
| --- | --- | --- | --- | --- | --- | --- | --- | --- | --- | --- | --- | --- | --- | --- | --- | --- | --- | --- | --- |
| Cc1nnc(SCC2=C(C(=O)O)N3C(=O)[C@@H](NC(=O)Cn4cnnn4)[C@H]3SC2)s1 [CFZ, cefazolin] | 128 (≈ 282 µM) | > 128 | > 128 | 1 (≈ 2.2 µM) | 1 (≈ 2.2 µM) | > 128 | > 128 | > 128 | 32 (≈ 70.4 µM) | > 128 | > 128 | > 128 | > 128 | 1 (≈ 2.2 µM) | 4 (≈ 8.8 µM) | > 128 | – | – | – |
| C=C[C@]1(C)C[C@@H](OC(=O)CO)[C@]2(C)[C@H](C)CC[C@]3(CCC(=O)[C@H]32)[C@@H](C)[C@@H]1O [Pleuromutilin] | – | – | – | – | – | – | – | – | – | – | – | – | – | – | – | – | – | – | MICcombo [6, 9]: 4 µg/mL; MIC ([6]; Acinetobacter baumannii, ATCC17978, 18 h, antibiotic alone (Supplementary Table 7), read-out: MICantibiotic): 256 µg/mL; MICcombo [7]: 0.5 µg/mL; MIC [7]: 64 µg/mL; MICcombo [8, 9]: 256 µg/mL; MIC ([8]; Pseudomonas aeruginosa, 18 h, antibiotic alone (Supplementary Table 7), read-out: MICantibiotic): 1020 µg/mL (≈ 2710 µM) |
| NCC[C@H](O)C(=O)N[C@@H]1C[C@H](N)[C@@H](O[C@H]2O[C@H](CN)[C@@H](O)[C@H](O)[C@H]2O)[C@H](O)[C@H]1O[C@H]1O[C@H](CO)[C@@H](O)[C@H](N)[C@H]1O [AMK, amikacin] | < 1 | > 64 | 2 (≈ 3.42 µM) | ≤ 1 | ≤ 1 | ≤ 1 | 2 (≈ 3.42 µM) | 2 (≈ 3.42 µM) | 1 (≈ 1.71 µM) | > 64 | > 64 | 8 (≈ 13.7 µM) | > 32 | 2 (≈ 3.42 µM) | 2 (≈ 3.42 µM) | 2 (≈ 3.42 µM) | 4 (≈ 6.83 µM) | – | – |
| C[C@@H](O)[C@H]1C(=O)N2C(C(=O)O)=C(S[C@@H]3CN[C@H](C(=O)Nc4cccc(C(=O)O)c4)C3)[C@H](C)[C@H]12 [ETP, ertapenem] | – | – | – | ≤ 0.03 | ≤ 0.03 | 0.12 (≈ 0.252 µM) | ≤ 0.03 | – | – | > 32 | > 32 | > 32 | > 32 | ≤ 0.03 | ≤ 0.03 | > 32 | – | – | – |
| C[C@@H](O)[C@H]1C(=O)N2C(C(=O)O)=C(S[C@@H]3CN[C@H](CNS(N)(=O)=O)C3)[C@H](C)[C@H]12 [DOR, doripenem] | – | – | – | – | – | – | – | – | – | > 1020 | 16 (≈ 38 µM) | 16 (≈ 38 µM) | 16 (≈ 38 µM) | – | – | – | – | 8 (≈ 19 µM) | – |
| C[C@@H](O)[C@H]1C(=O)N2C(C(=O)O)=C(S[C@@H]3CN[C@H](C(=O)N(C)C)C3)[C@H](C)[C@H]12 [MER, meropenem] | 4 (≈ 10.4 µM) | 16 (≈ 41.7 µM) | 1 (≈ 2.61 µM) | ≤ 0.03 | ≤ 0.03 | ≤ 0.03 | ≤ 0.03 | 0.12 (≈ 0.313 µM) | 0.06 (≈ 0.156 µM) | 1020 (≈ 2670 µM) | 32 (≈ 83.4 µM) | 64 (≈ 167 µM) | 16 (≈ 41.7 µM) | ≤ 0.03 | ≤ 0.03 | 32 (≈ 83.4 µM) | < 1 | 8 (≈ 20.9 µM) | – |
| O=C(O)c1cn(C2CC2)c2cc(N3CCNCC3)c(F)cc2c1=O [Ciprofloxacin] | – | – | – | – | – | – | – | – | – | – | – | – | – | – | – | – | – | – | MICcombo [7]: 0.002 µg/mL; MIC [7]: 0.008 µg/mL |
| CO/N=C(\C(=O)N[C@@H]1C(=O)N2C(C(=O)O)=C(COC(C)=O)CS[C@H]12)c1csc(N)n1 [CTX, cefotaxime] | – | – | 16 (≈ 35.1 µM) | – | – | – | – | – | – | 2050 (≈ 4500 µM) | 128 (≈ 281 µM) | 2050 (≈ 4500 µM) | – | – | – | – | – | 128 (≈ 281 µM) | MIC [1]: > 256 µg/mL; MIC [4]; 91433: 1020 µg/mL (≈ 2250 µM) |
| CN(C)c1cc(NC(=O)CNC(C)(C)C)c(O)c2c1C[C@H]1C[C@H]3[C@H](N(C)C)C(O)=C(C(N)=O)C(=O)[C@@]3(O)C(O)=C1C2=O [TGC, tigecycline] | 0.25 (≈ 0.427 µM) | 4 (≈ 6.83 µM) | 8 (≈ 13.7 µM) | – | – | 1 (≈ 1.71 µM) | 0.5 (≈ 0.854 µM) | – | – | 32 (≈ 54.6 µM) | 32 (≈ 54.6 µM) | 32 (≈ 54.6 µM) | 32 (≈ 54.6 µM) | 0.25 (≈ 0.427 µM) | 1 (≈ 1.71 µM) | 0.25 (≈ 0.427 µM) | < 4 | – | – |

From paper PMC8733726, “Dioctanoyl Ultrashort Tetrabasic β-Peptides Sensitize Multidrug-Resistant Gram-Negative Bacteria to Novobiocin and Rifampicin” (Frontiers in Microbiology, 2021)
